Patent US20100285032A1, “ESTROGEN RECEPTOR-RELATED RECEPTOR GAMMA (ERR GAMMA) IN BONE AND CARTILAGE FORMATION AND METHODS AND COMPOSITIONS RELATING TO SAME” (priority 2007, published 2010)

What was measured:
ERRγ = target: T1, ERRγ (Homo sapiens, UniProt P62508); conditions: cited from earlier work
T1 sequence (P62508 1-458): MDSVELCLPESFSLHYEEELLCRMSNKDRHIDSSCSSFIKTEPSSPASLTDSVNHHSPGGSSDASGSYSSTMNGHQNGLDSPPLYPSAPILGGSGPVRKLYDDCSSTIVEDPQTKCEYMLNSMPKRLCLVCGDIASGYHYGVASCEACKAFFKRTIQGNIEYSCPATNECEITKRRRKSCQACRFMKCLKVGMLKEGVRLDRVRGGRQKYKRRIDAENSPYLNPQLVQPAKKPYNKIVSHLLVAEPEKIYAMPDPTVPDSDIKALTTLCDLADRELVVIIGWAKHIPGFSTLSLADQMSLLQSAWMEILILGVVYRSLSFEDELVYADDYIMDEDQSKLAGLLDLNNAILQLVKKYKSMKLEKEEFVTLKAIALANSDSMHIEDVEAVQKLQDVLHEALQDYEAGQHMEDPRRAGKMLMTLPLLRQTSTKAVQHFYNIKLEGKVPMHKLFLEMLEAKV

ERRs = conditions: cited from earlier work
PGC-1/ERRα = conditions: cited from earlier work
ERRα = target: T2, ERRα (Homo sapiens, UniProt P11474); conditions: yeast-based and mammalian transient transfection assays; cited from earlier work
T2 construct: host or cells: yeast
T2 sequence (P11474 1-423): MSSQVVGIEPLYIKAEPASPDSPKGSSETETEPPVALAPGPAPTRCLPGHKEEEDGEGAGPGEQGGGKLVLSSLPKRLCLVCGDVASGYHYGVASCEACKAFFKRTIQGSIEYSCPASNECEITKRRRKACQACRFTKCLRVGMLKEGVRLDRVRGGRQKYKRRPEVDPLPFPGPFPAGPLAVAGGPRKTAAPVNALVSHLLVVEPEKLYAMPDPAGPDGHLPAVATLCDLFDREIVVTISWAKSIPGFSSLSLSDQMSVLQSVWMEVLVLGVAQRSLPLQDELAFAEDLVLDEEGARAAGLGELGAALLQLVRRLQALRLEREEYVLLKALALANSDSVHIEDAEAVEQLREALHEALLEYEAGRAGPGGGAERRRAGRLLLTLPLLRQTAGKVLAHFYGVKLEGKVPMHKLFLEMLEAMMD

C5.18 cells = assay: Cartilage nodule formation in C5.18 cell cultures after oligonucleotide treatment; assay type: cell-based, rat; conditions: C5.18 cultures, treated during differentiation phase
Description: (§1) Cells were isolated from 21-day-old fetal Wistar rat or neonatal mouse calvariae or were the chondrogenic C5.18 cell line and were grown for osteogenic or chondrogenic differentiation as described previously (Bonnelye et al., 2001; Bonnelye et al., 2007). Medium was replaced every second day and cells were cultured at 37° C. in a 5% CO2 humidified atmosphere for 15-20 days until mineralized bone nodules or cartilage nodules had formed in control cultures.
(§2) Rat calvarial cells were plated into 24 well plates at 10^4 cells/well. Antisense oligonucleotide inhibition of ERRγ expression was accomplished with a 20-base phosphorothioate-modified oligonucleotide. Control dishes were treated with the complementary sense oligonucleotide or no oligonucleotide. Briefly, oligonucleotide concentrations that have been found previously not to be toxic (0.5 μM to 2 μM) were added directly to cells during the proliferation (day 1-5) or differentiation phase (day 5 (end of proliferation) to 11) in standard medium as above supplemented with 50 μg/ml ascorbic acid, 10 mM sodium β-glycerophosphate. Medium was changed every 2 days and fresh oligonucleotides were added at each change. At day 15, cultures were terminated and stained for alkaline phosphatase according to previous protocols (Bonnelye et al., 2001).

rat calvaria (RC) cells = assay: Bone nodule formation in rat calvaria (RC) cell cultures after oligonucleotide treatment; assay type: cell-based
Description: as §1, §2

## 4-hydroxytamoxifen
ERRγ
  activity on ERRγ (agonist/antagonist): antagonize ERRγ
ERRs
  activity on ERRs (agonist/antagonist): antagonists of ERRs

## CN(C)CCOc1ccc(/C(=C(/CCCl)c2ccccc2)c2ccc(O)cc2)cc1 [4-hydroxytoremifene]
ERRγ
  activity on ERRγ (agonist/antagonist): antagonize ERRγ

## O=c1cc(-c2ccc(O)c(O)c2)oc2ccc(O)cc12 [6,3′,4′-trihydroxyflavone]
ERRs
  activity on ERRs (agonist/antagonist): agonists of ERRs

## CC(C)c1ccc(/C=N/NC(=O)c2ccc(O)cc2)cc1 [GSK4716]
ERRγ
  activity on ERRγ (agonist/antagonist): agonists of ERRγ

## COc1cc(/C=C(\C#N)C(=O)Nc2nnc(C(F)(F)F)s2)ccc1OCc1ccc(C(F)(F)F)cc1C(F)(F)F [XCT790]
PGC-1/ERRα
  activity on PGC-1/ERRα dependent signaling: inverse agonists

## COc1ccc(-c2coc3cc(O)cc(O)c3c2=O)cc1 [biochanin A]
ERRs
  activity on ERRs (agonist/antagonist): agonists of ERRs

## ClC1=C(Cl)C2(Cl)C3C(Cl)C(Cl)CC3C1(Cl)C2(Cl)Cl (stereo not shown) [chlordane]
ERRα
  effect on constitutive activity of ERRα: suppress the constitutive activity of ERRα

## O=c1c(-c2ccc(O)cc2)coc2cc(O)ccc12 [daidzein]
ERRs
  activity on ERRs (agonist/antagonist): agonists of ERRs

## CC/C(=C(/CC)c1ccc(O)cc1)c1ccc(O)cc1 [diethylstilbestrol]
ERRs
  activity on ERRs (agonist/antagonist): antagonists of ERRs

## O=c1c(-c2ccc(O)cc2)coc2cc(O)cc(O)c12 [genistein]
ERRs
  activity on ERRs (agonist/antagonist): agonists of ERRs

## CC1(C)C(C(Cl)Cl)C2(Cl)C(Cl)C(Cl)C1(Cl)C2(Cl)Cl (stereo not shown) [toxaphene]
ERRα
  effect on constitutive activity of ERRα: suppress the constitutive activity of ERRα

## ggtGGTTGACGCTGTCCGTCagg (antisense GGTGGTTGACGCTGTCCGTCAGG; all phosphorothioate, sugars by position and methylation of C not given here) [antisense oligonucleotide]
C5.18 cells
  cartilage nodule formation: tended to increase
Rat calvaria (RC) cells; RC cultures, treated during differentiation phase (day 5 to 11)
  bone nodule formation: significantly increased
Rat calvaria (RC) cells; RC cultures, treated during proliferation phase (day 1-5)
  bone nodule formation: significantly increased
Rat calvaria (RC) cells; rat calvaria osteoblastic cells, treatment phase not stated
  bone nodule formation: increases bone nodule formation
